Assay results as given in US20080312255A1 (ASTRAZENECA AB, priority 2007, published 2008).

These molecules were tested against S. aureus GyrB ATPase (Staphylococcus aureus, UniProt P0A0K8) (assay: S. aureus GyrB ATPase inhibition (ammonium molybdate/malachite green phosphate detection)). Details: compound concentration of 1 μM.
Chain of S. aureus GyrB ATPase (P0AES4 whole entry): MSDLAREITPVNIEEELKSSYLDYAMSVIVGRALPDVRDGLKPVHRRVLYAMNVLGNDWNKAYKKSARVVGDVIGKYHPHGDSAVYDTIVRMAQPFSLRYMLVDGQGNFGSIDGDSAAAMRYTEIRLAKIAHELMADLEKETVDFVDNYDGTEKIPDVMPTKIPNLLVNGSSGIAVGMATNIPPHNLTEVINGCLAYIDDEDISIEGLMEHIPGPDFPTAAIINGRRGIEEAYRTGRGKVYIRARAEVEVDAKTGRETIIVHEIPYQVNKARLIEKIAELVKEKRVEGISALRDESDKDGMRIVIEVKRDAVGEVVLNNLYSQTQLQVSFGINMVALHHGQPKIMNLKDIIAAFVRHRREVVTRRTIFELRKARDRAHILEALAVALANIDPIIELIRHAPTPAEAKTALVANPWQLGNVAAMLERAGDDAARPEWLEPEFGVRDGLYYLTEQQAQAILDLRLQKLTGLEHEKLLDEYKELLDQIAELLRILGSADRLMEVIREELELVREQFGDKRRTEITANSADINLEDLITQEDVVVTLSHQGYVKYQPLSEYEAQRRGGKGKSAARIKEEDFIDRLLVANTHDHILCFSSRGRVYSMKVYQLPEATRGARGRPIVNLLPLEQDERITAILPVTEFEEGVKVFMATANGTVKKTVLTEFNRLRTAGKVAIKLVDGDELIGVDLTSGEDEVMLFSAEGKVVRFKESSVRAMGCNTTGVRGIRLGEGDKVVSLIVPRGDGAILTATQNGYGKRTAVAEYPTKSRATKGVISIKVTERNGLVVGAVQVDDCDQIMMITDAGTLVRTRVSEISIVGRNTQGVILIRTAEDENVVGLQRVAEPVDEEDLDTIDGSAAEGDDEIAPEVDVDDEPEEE
Chain of S. aureus GyrB ATPase (P0A0K8 whole entry): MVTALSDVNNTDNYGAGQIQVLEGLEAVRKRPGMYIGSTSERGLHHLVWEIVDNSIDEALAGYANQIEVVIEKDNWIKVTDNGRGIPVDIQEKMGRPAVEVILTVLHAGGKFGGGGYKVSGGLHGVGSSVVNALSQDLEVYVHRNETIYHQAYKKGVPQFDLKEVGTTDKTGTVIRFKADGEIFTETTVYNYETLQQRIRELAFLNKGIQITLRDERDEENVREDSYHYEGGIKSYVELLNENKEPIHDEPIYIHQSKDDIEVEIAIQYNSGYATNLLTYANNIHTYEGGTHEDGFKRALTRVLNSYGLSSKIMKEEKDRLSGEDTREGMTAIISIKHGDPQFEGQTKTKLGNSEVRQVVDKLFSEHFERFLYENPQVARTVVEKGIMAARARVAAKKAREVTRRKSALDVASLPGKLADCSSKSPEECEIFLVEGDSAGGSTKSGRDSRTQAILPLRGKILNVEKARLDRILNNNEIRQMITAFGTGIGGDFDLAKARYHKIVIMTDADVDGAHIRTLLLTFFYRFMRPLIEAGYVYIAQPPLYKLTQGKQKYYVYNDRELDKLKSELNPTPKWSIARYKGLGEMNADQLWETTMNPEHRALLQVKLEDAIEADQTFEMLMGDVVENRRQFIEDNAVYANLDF
Type: biochemical
Summary of the method: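 E. coli GyrA and S. aureus GyrB (250 pM each) with sheared salmon sperm DNA and 250 μM ATP, pH 7.5 Hepes buffer. Released phosphate detected by malachite green/ammonium molybdate at 650 nm; percent inhibition at 1 μM compound unless noted, normalized to 2% DMSO (0%) and EDTA (100%) controls.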
Work on CCOC(=O)c1sc(N2CC[C@@H](NC(=O)c3[nH]c(C)c(Cl)c3Cl)[C@@H](OC)C2)nc1-c1cnc(C)cn1 [Example 96, ethyl 2-((3S,4R)-4-(3,4-dichloro-5-methyl-1H-pyrrole-2-carboxamido)-3-methoxypiperidin-1-yl)-4-(5-methylpyrazin-2-yl)thiazole-5-carboxylate] yielded an inhibition at 1 µM of 90.2%. Molecule CCOC(=O)c1sc(N2CC[C@@H](NC(=O)c3[nH]c(C)c(Cl)c3Cl)[C@@H](OC)C2)nc1-c1ncccc1F [Example 97, ethyl 2-((3S,4R)-4-(3,4-dichloro-5-methyl-1H-pyrrole-2-carboxamido)-3-methoxypiperidin-1-yl)-4-(3-fluoropyridin-2-yl)thiazole-5-carboxylate] has an inhibition at 1 µM of 91.5%. For CCOC(=O)c1sc(N2CC[C@@H](NC(=O)c3[nH]c(C)c(Cl)c3Cl)[C@@H](F)C2)nc1-c1cc(OC)ccn1 [Example 98, Ethyl 2-((3S,4R)-4-(3,4-dichloro-5-methyl-1H-pyrrole-2-carboxamido)-3-fluoropiperidin-1-yl)-4-(4-methoxypyridin-2-yl)thiazole-5-carboxylate], the inhibition at 1 µM was 84.4%. Molecule COC(=O)c1sc(N2CC[C@@H](NC(=O)c3[nH]c(C)c(Cl)c3Cl)[C@@H](F)C2)nc1-c1cn(C)nn1 [Example 99, methyl 2-((3S,4R)-4-(3,4-dichloro-5-methyl-1H-pyrrole-2-carboxamido)-3-fluoropiperidin-1-yl)-4-(1-methyl-1H-1,2,3-triazol-4-yl)thiazole-5-carboxylate] has an inhibition at 1 µM of 102%. COC(=O)c1sc(N2CC[C@@H](NC(=O)c3[nH]c(C)c(Cl)c3Cl)[C@@H](F)C2)nc1-c1cccc(OC)n1 [Example 100, methyl 2-((3S,4R)-4-(3,4-dichloro-5-methyl-1H-pyrrole-2-carboxamido)-3-fluoropiperidin-1-yl)-4-(6-methoxypyridin-2-yl)thiazole-5-carboxylate] gave an inhibition at 1 µM of 112%. With CCOC(=O)c1sc(N2CC[C@@H](NC(=O)c3[nH]c(C)c(Cl)c3Cl)[C@@H](F)C2)nc1-c1ncccc1F [Example 102, ethyl 2-((3S,4R)-4-(3,4-dichloro-5-methyl-1H-pyrrole-2-carboxamido)-3-fluoropiperidin-1-yl)-4-(3-fluoropyridin-2-yl)thiazole-5-carboxylate] the inhibition at 1 µM was 81.4%. Work on COC(=O)c1sc(N2CC[C@@H](NC(=O)c3[nH]c(C)c(Cl)c3C#N)[C@@H](OC)C2)nc1-c1cn(C)nn1 [Example 103, methyl 2-((3S,4R)-4-(4-chloro-3-cyano-5-methyl-1H-pyrrole-2-carboxamido)-3-methoxypiperidin-1-yl)-4-(1-methyl-1H-1,2,3-triazol-4-yl)thiazole-5-carboxylate] yielded an inhibition at 1 µM of 85.7%. For COC(=O)c1sc(N2CC[C@@H](NC(=O)c3[nH]c(C)c(Cl)c3C#N)[C@@H](OC)C2)nc1-c1ncnn1C [Example 104, methyl 2-((3S,4R)-4-(4-chloro-3-cyano-5-methyl-1H-pyrrole-2-carboxamido)-3-methoxypiperidin-1-yl)-4-(1-methyl-1H-1,2,4-triazol-5-yl)thiazole-5-carboxylate], the inhibition at 1 µM was 86.4%. CCOC(=O)c1sc(N2CC[C@@H](NC(=O)c3[nH]c(C)c(Cl)c3C#N)[C@@H](OC)C2)nc1-c1ncccn1 [Example 105, ethyl 2-((3S,4R)-4-(4-chloro-3-cyano-5-methyl-1H-pyrrole-2-carboxamido)-3-methoxypiperidin-1-yl)-4-(pyrimidin-2-yl)thiazole-5-carboxylate] was tested, and the inhibition at 1 µM was 103%. CCOC(=O)c1sc(N2CC[C@@H](NC(=O)c3[nH]c(C)c(Cl)c3C#N)[C@@H](OC)C2)nc1-c1ncccc1F [Example 106, ethyl 2-((3S,4R)-4-(4-chloro-3-cyano-5-methyl-1H-pyrrole-2-carboxamido)-3-methoxypiperidin-1-yl)-4-(3-fluoropyridin-2-yl)thiazole-5-carboxylate] was tested, and the inhibition at 1 µM was 101%. For CCOC(=O)c1sc(N2CC[C@@H](NC(=O)c3[nH]c(C)c(Cl)c3C#N)[C@@H](OC)C2)nc1-c1cn(C)cn1 [Example 108, ethyl 2-((3S,4R)-4-(4-chloro-3-cyano-5-methyl-1H-pyrrole-2-carboxamido)-3-methoxypiperidin-1-yl)-4-(1-methyl-1H-imidazol-4-yl)thiazole-5-carboxylate], the inhibition at 1 µM was 86.6%. For CO[C@H]1CN(c2nc(-c3cn(C)nn3)c(C(=O)O)s2)CC[C@H]1NC(=O)c1[nH]c(C)c(Cl)c1Cl [Example 109, 2-((3S,4R)-4-(3,4-dichloro-5-methyl-1H-pyrrole-2-carboxamido)-3-methoxypiperidin-1-yl)-4-(1-methyl-1H-1,2,3-triazol-4-yl)thiazole-5-carboxylic acid], the inhibition at 1 µM was 101%. For COc1cccc(-c2nc(N3CC[C@@H](NC(=O)c4[nH]c(C)c(Cl)c4Cl)[C@@H](OC)C3)sc2C(=O)O)n1 [Example 111, 2-((3S,4R)-4-(3,4-dichloro-5-methyl-1H-pyrrole-2-carboxamido)-3-methoxypiperidin-1-yl)-4-(6-methoxypyridin-2-yl)thiazole-5-carboxylic acid], the inhibition at 1 µM was 105%. For COc1ccnc(-c2nc(N3CC[C@@H](NC(=O)c4[nH]c(C)c(Cl)c4Cl)[C@@H](OC)C3)sc2C(=O)O)c1 [Example 112, 2-((3S,4R)-4-(3,4-dichloro-5-methyl-1H-pyrrole-2-carboxamido)-3-methoxypiperidin-1-yl)-4-(4-methoxypyridin-2-yl)thiazole-5-carboxylic acid], the inhibition at 1 µM was 81.1%. With CO[C@H]1CN(c2nc(-c3cnc(C)cn3)c(C(=O)O)s2)CC[C@H]1NC(=O)c1[nH]c(C)c(Cl)c1Cl [Example 113, 2-((3S,4R)-4-(3,4-dichloro-5-methyl-1H-pyrrole-2-carboxamido)-3-methoxypiperidin-1-yl)-4-(5-methylpyrazin-2-yl)thiazole-5-carboxylic acid] the inhibition at 1 µM was 92.9%. Molecule CO[C@H]1CN(c2nc(-c3ncccc3F)c(C(=O)O)s2)CC[C@H]1NC(=O)c1[nH]c(C)c(Cl)c1Cl [Example 114, 2-((3S,4R)-4-(3,4-dichloro-5-methyl-1H-pyrrole-2-carboxamido)-3-methoxypiperidin-1-yl)-4-(3-fluoropyridin-2-yl)thiazole-5-carboxylic acid] has an inhibition at 1 µM of 82.9%. For Cc1[nH]c(C(=O)N[C@@H]2CCN(c3nc(-c4cn(C)nn4)c(C(=O)O)s3)C[C@@H]2F)c(Cl)c1Cl [Example 116, 2-((3S,4R)-4-(3,4-dichloro-5-methyl-1H-pyrrole-2-carboxamido)-3-fluoropiperidin-1-yl)-4-(1-methyl-1H-1,2,3-triazol-4-yl)thiazole-5-carboxylic acid], the inhibition at 1 µM was 101%. COc1cccc(-c2nc(N3CC[C@@H](NC(=O)c4[nH]c(C)c(Cl)c4Cl)[C@@H](F)C3)sc2C(=O)O)n1 [Example 117, 2-((3S,4R)-4-(3,4-dichloro-5-methyl-1H-pyrrole-2-carboxamido)-3-fluoropiperidin-1-yl)-4-(6-methoxypyridin-2-yl)thiazole-5-carboxylic acid] was tested, and the inhibition at 1 µM was 108%. With Cc1cnc(-c2nc(N3CC[C@@H](NC(=O)c4[nH]c(C)c(Cl)c4Cl)[C@@H](F)C3)sc2C(=O)O)cn1 [Example 118, 2-((3S,4R)-4-(3,4-dichloro-5-methyl-1H-pyrrole-2-carboxamido)-3-fluoropiperidin-1-yl)-4-(5-methylpyrazin-2-yl)thiazole-5-carboxylic acid] the inhibition at 1 µM was 92.1%. Molecule Cc1[nH]c(C(=O)N[C@@H]2CCN(c3nc(-c4ncccc4F)c(C(=O)O)s3)C[C@@H]2F)c(Cl)c1Cl [Example 119, 2-((3S,4R)-4-(3,4-dichloro-5-methyl-1H-pyrrole-2-carboxamido)-3-fluoropiperidin-1-yl)-4-(3-fluoropyridin-2-yl)thiazole-5-carboxylic acid] has an inhibition at 1 µM of 79.4%. Molecule CO[C@H]1CN(c2nc(-c3cn(C)nn3)c(C(=O)O)s2)CC[C@H]1NC(=O)c1[nH]c(C)c(Cl)c1C#N [Example 120, 2-((3S,4R)-4-(4-chloro-3-cyano-5-methyl-1H-pyrrole-2-carboxamido)-3-methoxypiperidin-1-yl)-4-(1-methyl-1H-1,2,3-triazol-4-yl)thiazole-5-carboxylic acid] has an inhibition at 1 µM of 104%. In the case of CO[C@H]1CN(c2nc(-c3ncnn3C)c(C(=O)O)s2)CC[C@H]1NC(=O)c1[nH]c(C)c(Cl)c1C#N [Example 121, 2-((3S,4R)-4-(4-chloro-3-cyano-5-methyl-1H-pyrrole-2-carboxamido)-3-methoxypiperidin-1-yl)-4-(1-methyl-1H-1,2,4-triazol-5-yl)thiazole-5-carboxylic acid], the inhibition at 1 µM is reported as 103%. CO[C@H]1CN(c2nc(-c3ncccn3)c(C(=O)O)s2)CC[C@H]1NC(=O)c1[nH]c(C)c(Cl)c1C#N [Example 122, 2-((3S,4R)-4-(4-chloro-3-cyano-5-methyl-1H-pyrrole-2-carboxamido)-3-methoxypiperidin-1-yl)-4-(pyrimidin-2-yl)thiazole-5-carboxylic acid] showed an inhibition at 1 µM of 103%. CO[C@H]1CN(c2nc(-c3ncccc3F)c(C(=O)O)s2)CC[C@H]1NC(=O)c1[nH]c(C)c(Cl)c1C#N [Example 123, 2-((3S,4R)-4-(4-chloro-3-cyano-5-methyl-1H-pyrrole-2-carboxamido)-3-methoxypiperidin-1-yl)-4-(3-fluoropyridin-2-yl)thiazole-5-carboxylic acid] gave an inhibition at 1 µM of 104%. CO[C@H]1CN(c2nc(-c3cnc(C)cn3)c(C(=O)O)s2)CC[C@H]1NC(=O)c1[nH]c(C)c(Cl)c1C#N [Example 124, 2-((3S,4R)-4-(4-chloro-3-cyano-5-methyl-1H-pyrrole-2-carboxamido)-3-methoxypiperidin-1-yl)-4-(5-methylpyrazin-2-yl)thiazole-5-carboxylic acid] showed an inhibition at 1 µM of 104%. CO[C@H]1CN(c2nc(-c3cn(C)cn3)c(C(=O)O)s2)CC[C@H]1NC(=O)c1[nH]c(C)c(Cl)c1C#N [Example 125, 2-((3S,4R)-4-(4-chloro-3-cyano-5-methyl-1H-pyrrole-2-carboxamido)-3-methoxypiperidin-1-yl)-4-(1-methyl-1H-imidazol-4-yl)thiazole-5-carboxylic acid] showed an inhibition at 1 µM of 103%.
